In PMC4389562, “Antigiardial activity of novel triazolyl-quinolone-based chalcone derivatives: when oxygen makes the difference” (Frontiers in Microbiology, 2015):
Like-named read-outs stand apart in the source and are kept apart here.

Key:
Caco-2 cells = assay: Counter-screen on Caco-2 cells, ATP level by luminescence (ATPlite), 48 h incubation; format: cell-based, human; settings: atmospheric O2, 5% CO2, 48 h, 37 °C
Protocol: Trophozoites of G. intestinalis strain WB clone C6 (ATCC No. 50803TM) were cultured axenically at 37^∘C in 25-cm^2 flasks containing Diamond’s TYI-S-33 medium supplemented with 10% bovine calf serum, 1 mg/mL bovine bile, 0.1 g/L streptomycin and 100 U/mL penicillin. […] Human epithelial colorectal adenocarcinoma (Caco-2) cells were grown in 25-cm^2 flasks in EMEM supplemented with 1% (v/v) non-essential amino acids, 2 mM glutamine, 5% (v/v) fetal bovine serum, 0.1 g/L streptomycin, and 100 U/mL penicillin.
Cells were detached with 0.5% trypsin-EDTA and seeded in sterile 96-well white clear-bottom plates at the same density of Giardia trophozoites and at increasing concentration of the compound to be tested, as described above. The assays were carried out exactly as reported for the Giardia trophozoites, except that the plates were incubated (still at 37^∘C) at atmospheric O2 level, 5% CO2, and 95% humidity. Each drug concentration was tested in at least seven replicates. MTZ was used as an internal […] control in the assay. Following 48 h incubation with each compound, according to the manufacturer instructions, 100 μL of the ATPlite^TM luminescence assay system (Perkin Elmer) was added to each well for one-step lysis and ATP level detection by luminescence.
Luminometric data were calibrated using ATP standard curves and normalized to the ATP level measured in control DMSO-treated cells (taken as 100%). The measured ATP level percentage was plotted as a function of the compound concentration and the half-maximal inhibitory concentration (IC50) was obtained by fitting the resulting titration profile to the Hill equation ([Goutelle et al., 2008]). The selectivity index (SI) of the compounds was then calculated as the ratio between the IC50 value measured on human cells over the value determined on Giardia trophozoites (SI = IC50,Caco-2/IC50,Giardia).
Selectivity of the newly synthesized compounds toward Giardia was assessed by running a counter-screen on human epithelial Caco-2 cells. […] This allowed us to calculate the compounds SI, defined as the ratio between the IC50 value measured on human cells over the value determined on Giardia trophozoites.

[1] = test system: Giardia intestinalis trophozoites; assay: Drug susceptibility of Giardia trophozoites, ATP level by luminescence (BacTiter-Glo), 48 h incubation, anaerobic or microaerobic; format: cell-based, Giardia intestinalis strain WB clone C6; settings: for IC50: 48 h, 37 °C, ATP level; for Selectivity (IC50,Caco/IC50,Giardia) Microaerobiosis / Selectivity (IC50,Caco/IC50,Giardia) Anaerobiosis: SI = IC50,Caco-2/IC50,Giardia; for selectivity ratio at 48 h: human (Caco-2 cells) versus Giardia intestinalis, Caco-2, SI = IC50,Caco-2/IC50,Giardia
Protocol: Trophozoites of G. intestinalis strain WB clone C6 (ATCC No. 50803TM) were cultured axenically at 37^∘C in 25-cm^2 flasks containing Diamond's TYI-S-33 medium supplemented with 10% bovine calf serum, 1 mg/mL bovine bile, 0.1 g/L streptomycin and 100 U/mL penicillin. Typically, 50 ml medium was inoculated with 25 × 10^6 cells and after 2 days cells were harvested by chilling the flasks on ice for 30 min for drug susceptibility assays. […] The assays were performed following the procedure described in [Bahadur et al. (2014)], using sterile 96-well white clear-bottom plates. […] Each drug concentration was tested in at least six replicates. MTZ was used as an internal positive control in the assay. The microtiter plates were then incubated at 37^∘C under anaerobic or microaerobic conditions, ensured by the Anaerocult® A or the Anaerocult® […] (Merck), respectively. […] Following 48 h incubation with the compound to be tested, 100 μL of the BacTiter-Glo^TM Microbial Cell Viability Assay System reagent (Promega) was added to each well for one-step lysis and ATP level detection. Plates were then incubated at room temperature for 15 min and ATP levels finally detected by luminescence on a plate reader (Wallac Victor3 1420 Multilabel Counter, PerkinElmer). Luminometric data were calibrated using ATP standard curves and normalized to the ATP level measured in control DMSO-treated cells (taken as 100%). The measured ATP level percentage was plotted as a function of the compound concentration and the half-maximal inhibitory concentration (IC50) was obtained by fitting the resulting titration profile to the Hill equation ([Goutelle et al., 2008]). The selectivity index (SI) of the compounds was then calculated as the ratio between the IC50 value measured on human cells over the value determined on Giardia trophozoites (SI = IC50,Caco-2/IC50,Giardia). The antigiardial activity of the novel compounds 23-67 was tested under both anaerobic and microaerobic conditions. According to ([Dunn et al., 2010]; [Bahadur et al., 2014]), susceptibility of Giardia trophozoites to increasing concentrations of each compound was assessed based on ATP level determination by luminescence. Dose-response curves for each compound were obtained after 48 h-incubation and compared to the data collected under identical conditions with MTZ, the drug of choice for treatment of giardiasis. […] Typical dose-response curves are shown in Figure 2, whereas the IC50 values measured for the synthetic compounds and MTZ under anaerobic and microaerobic conditions are reported in Table 1. […] Under anaerobic conditions, 18 out of the 45 synthetic compounds were as effective as MTZ or more under identical conditions (see Table 1).

[2] = Giardia duodenalis, anaerobic conditions (Anaerocult A), read-out: Giardia (anaerobiosis) IC50
[3] = Giardia duodenalis, microaerobic conditions (~5% O2, Anaerocult C), read-out: Giardia (microaerobiosis) IC50
[4] = anaerobic conditions (Anaerocult A), read-out: Giardia (anaerobiosis) IC50
[5] = microaerobic conditions (~5% O2, Anaerocult C), read-out: Giardia (microaerobiosis) IC50
[6] = Giardia under anaerobiosis, read-out: Selectivity (IC50,Caco/IC50,Giardia) Anaerobiosis
[7] = Giardia under microaerobiosis, read-out: Selectivity (IC50,Caco/IC50,Giardia) Microaerobiosis

Row | melting point [°C] | Selectivity (IC50,Caco/IC50,Giardia) Microaerobiosis ([1]; Giardia under microaerobiosis) | Selectivity (IC50,Caco/IC50,Giardia) Anaerobiosis ([1]; Giardia under anaerobiosis) | SMILES | IC50 (Caco-2 cells; Homo sapiens, Caco-2, 48 h) [µM] | IC50 [1, 2] [µM] | IC50 [1, 3] [µM] | IC50 (Caco-2 cells) [µM] | IC50 [1, 4] [µM] | IC50 [1, 5] [µM] | selectivity ratio at 48 h [1, 6] | selectivity ratio at 48 h [1, 7] | fold more efficient than MTZ against Giardia ([1]; anaerobic conditions, relative to MTZ)
1 | 215 to 217 |  |  | COc1ccc(-n2cc(Cn3c(=O)c(/C=C/C(=O)c4ccccc4F)cc4ccccc43)nn2)cc1 [Compound 23] | ≥ 100 | ≥ 100 | ≥ 20 |  |  |  |  |  | 
2 |  | ≥6 |  | COc1ccc(-n2cc(Cn3c(=O)c(/C=C/C(=O)c4cccc(F)c4)cc4ccccc43)nn2)cc1 [Compound 24] |  |  |  | ≥ 50 | ≥ 100 | 8.4 |  |  | 
3 | 211 to 213 |  |  | COc1ccc(-n2cc(Cn3c(=O)c(/C=C/C(=O)c4ccc(F)cc4)cc4ccccc43)nn2)cc1 [Compound 25] | ≥ 20 | 3.9 | 1.3 |  |  |  | ≥ 5 | ≥ 15 | 
4 | 230 to 232 |  |  | COc1ccc(-n2cc(Cn3c(=O)c(/C=C/C(=O)c4ccc(Cl)cc4)cc4ccccc43)nn2)cc1 [Compound 26] | ≥ 20 | 5 | 2.6 |  |  |  | ≥ 4 | ≥ 7 | 
5 |  | ≥10 | ≥2 | COc1ccc(-n2cc(Cn3c(=O)c(/C=C/C(=O)c4ccc(Br)cc4)cc4ccccc43)nn2)cc1 [Compound 27] |  |  |  | ≥ 20 | 9.6 | 2 |  |  | 
6 | 213 to 215 |  |  | COc1ccc(-n2cc(Cn3c(=O)c(/C=C/C(=O)c4ccc(C)cc4)cc4ccccc43)nn2)cc1 [Compound 28] | ≥ 80 | 5.4 | 1.5 |  |  |  | ≥ 14 | ≥ 53 | 
7 | 210 to 212 |  |  | COc1ccc(-n2cc(Cn3c(=O)c(/C=C/C(=O)c4ccccc4OC)cc4ccccc43)nn2)cc1 [Compound 29] | ≥ 40 | 2.2 | 0.4 |  |  |  | > 15 |  | 
8 |  | ≥153 | ≥33 | COc1ccc(-n2cc(Cn3c(=O)c(/C=C/C(=O)c4cccc(OC)c4)cc4ccccc43)nn2)cc1 [Compound 30] |  |  |  | ≥ 200 | 5.9 | 1.3 |  |  | 
9 | 190 to 192 |  |  | COc1ccc(C(=O)/C=C/c2cc3ccccc3n(Cc3cn(-c4ccc(OC)cc4)nn3)c2=O)cc1 [Compound 31] | ≥ 80 | ≥ 50 | 2 |  |  |  |  | ≥ 40 | 
10 | 197 to 199 |  |  | Cc1ccc(-n2cc(Cn3c(=O)c(/C=C/C(=O)c4ccccc4F)cc4ccccc43)nn2)cc1 [Compound 32] | 17.6 | 3.2 | 0.6 |  |  |  | 5.5 | 29.3 | 
11 |  | 19,1 | 3,4 | Cc1ccc(-n2cc(Cn3c(=O)c(/C=C/C(=O)c4cccc(F)c4)cc4ccccc43)nn2)cc1 [Compound 33] |  |  |  | 13.4 | 4 | 0.7 |  |  | 
12 | 215 to 217 |  |  | Cc1ccc(-n2cc(Cn3c(=O)c(/C=C/C(=O)c4ccc(F)cc4)cc4ccccc43)nn2)cc1 [Compound 34] | 9.4 | 3.8 | 1.2 |  |  |  | 2.5 | 7.8 | 
13 | 196 to 198 |  |  | Cc1ccc(-n2cc(Cn3c(=O)c(/C=C/C(=O)c4ccc(Cl)cc4)cc4ccccc43)nn2)cc1 [Compound 35] | 7 | 2.4 | 0.8 |  |  |  | 2.9 | 8.8 | 
14 | 216 to 218 |  |  | Cc1ccc(-n2cc(Cn3c(=O)c(/C=C/C(=O)c4ccc(Br)cc4)cc4ccccc43)nn2)cc1 [Compound 36] | ≥ 50 | 10.7 | 2.3 |  |  |  | ≥ 4 | ≥ 21 | 
15 |  | 34,3 | 6,9 | COc1ccccc1C(=O)/C=C/c1cc2ccccc2n(Cc2cn(-c3ccc(C)cc3)nn2)c1=O [Compound 38] |  |  |  | 13.7 | 2 | 0.4 |  |  | 
16 | 192 to 194 |  |  | COc1cccc(C(=O)/C=C/c2cc3ccccc3n(Cc3cn(-c4ccc(C)cc4)nn3)c2=O)c1 [Compound 39] |  | 2.9 | 1.3 |  |  |  |  |  | 
17 |  | 26 | 5,8 | O=C(/C=C/c1cc2ccccc2n(Cc2cn(-c3ccc(F)cc3)nn2)c1=O)c1ccccc1F [Compound 41] |  |  |  | 5.2 | 0.9 | 0.2 |  |  | three to fourfold
18 |  | 15,8 | 2,5 | Cc1ccc(C(=O)/C=C/c2cc3ccccc3n(Cc3cn(-c4ccc(F)cc4)nn3)c2=O)cc1 [Compound 46] |  |  |  | 6.3 | 2.5 | 0.4 |  |  | 
19 |  | ≥38 | ≥3 | COc1ccc(C(=O)/C=C/c2cc3ccccc3n(Cc3cn(-c4ccc(F)cc4)nn3)c2=O)cc1 [Compound 49] |  |  |  | ≥ 50 | 13 | 1.3 |  |  | 
20 |  | ≥10 | ≥ 2 | O=C(/C=C/c1cc2ccccc2n(Cc2cn(-c3ccc(Cl)cc3)nn2)c1=O)c1ccc(Br)cc1 [Compound 54] |  |  |  | ≥ 20 | 9.2 | 1.9 |  |  | 
21 |  | ≥ 50 | ≥ 7 | O=C(/C=C/c1cc2ccccc2n(Cc2cn(-c3ccccc3)nn2)c1=O)c1ccc(Br)cc1 [Compound 63] |  |  |  | ≥ 50 | 6.3 | 1 |  |  | 
22 |  |  |  | Cc1ncc([N+](=O)[O-])n1CCO [MTZ, metronidazole, reference compound] | > 100 | 3.4 | ≥ 25 |  |  |  | ≥ 29 |  | 
